“Also recorded” adds a separate entry of the source.
Columns and labels:
5-HT1 receptor = assay: binding to 5-HT1 sites ([3H]serotonin displacement, rat brain frontal cortex); parameters: species or system rat (Wistar); conditions: for IC50: 2 nM [3H]serotonin, rat frontal cortex; for Selectivity Ratio: IC50 5HT2 / IC50 5HT1, values greater than 1 indicate selectivity for the 5HT1 receptor
Protocol: All radioactive ligands were obtained from New England Nuclear, Boston, Mass., USA. Specific binding was determined as the difference between total binding and nonspecific binding. Eleven concentrations of each of the compounds tested were used between 0.1 and 10,000 nM. All samples were run in duplicate.

5-HT2 receptor = molecular target: T1, 5-HT2 receptor (Rattus norvegicus, UniProt P14842); assay: binding to 5-HT2 sites ([3H]spiperone displacement, rat brain frontal cortex); parameters: species or system rat (Wistar)
T1 construct: Rat brain frontal cortex from male Wistar rats; from tissue; host or cells: rat brain frontal cortex (male Wistar), membrane pellet
Protocol: The pellet from the frontal cortex homogenates was suspended in 0.05 molar (M) Tris buffer containing 10 micromolar (μM) pargyline and 4 millimolar (mM) Ca^++ to give a final protein concentration of 250-350 microgram (μg) per sample. […] All radioactive ligands were obtained from New England Nuclear, Boston, Mass., USA. Specific binding was determined as the difference between total binding and nonspecific binding. Eleven concentrations of each of the compounds tested were used between 0.1 and 10,000 nM. All samples were run in duplicate.

[1] = test system: serotonin and 5-HIAA in rat brain; assay: animal or person; type: in vivo, rat (Wistar); conditions: sc, subcutaneous, 1 h after injection, p<0.05 vs control, read-out: Minimum effective dose suppressing 5-HIAA
Protocol: Male Wistar rate (HSD/[WI]BR) weighing about 150 g were kept in a temperature-controlled (24° C.) and light-controlled room (lights on from 7:00 A.M. to 7:00 P.M.) with food and water freely available. The compounds to be tested were dissolved in dilute hydrochloric acid and injected subcutaneously. Five rats per group were used in each experiment. The rats were decapitated one hour after injection and the brains were excised quickly, frozen on dry ice and stored at -15° C. before analysis. […] Neurosci. Abstr. […] Serum corticosterone levels were determined spectrofluorometrically by the method of Solem et al., Scand. J. Clin. Lab. Invest. […] 80, 1.

serum corticosterone = assay: corticosterone concentrations in the serum of rats; type: in vivo, rat (Wistar); conditions: sc; subcutaneous; rat, 1 h after injection; p<0.05 vs control; read-out: Minimum effective dose increasing serum corticosterone
Protocol: (§1) Male Wistar rate (HSD/[WI]BR) weighing about 150 g were kept in a temperature-controlled (24° C.) and light-controlled room (lights on from 7:00 A.M. to 7:00 P.M.) with food and water freely available. The compounds to be tested were dissolved in dilute hydrochloric acid and injected subcutaneously. Five rats per group were used in each experiment. The rats were decapitated one hour after injection and the brains were excised quickly, frozen on dry ice and stored at -15° C. before analysis. […] See Fuller et al., Biochem. Pharmacol. 1977, 26, 2087 and Perry et al., Soc. Neurosci. Abstr. 1979, 5, 348. Serum corticosterone levels were determined spectrofluorometrically by the method of Solem et al., Scand. J. Clin. Lab. Invest. 1965, 17, suppl. 80, 1.
The minimum effective doses of these same compounds which produced a statistically significant decrease in 5-HIAA concentration and a statistically significant increase in serum corticosterone concentration are shown in Table II. The minimum effective dose is the lowest dose producing significant differences from a control group (p<0.05).

[2] = test system: 5-hydroxytryptophan in rat hypothalamus; assay: accumulation of 5-hydroxytryptophan in rat hypothalamus (NSD-1015 treated rats); type: in vivo, rat (Wistar); conditions: for 5-Hydroxytryptophan Concentration in Hypothalamus: NSD-1015 100 mg/kg i.p., mean ± SE, n=5, control 1.92 ± 0.07, significant decrease p<0.01
Protocol: as §1
The protocol previously described for neurochemical determinations was repeated with the following modification. To each of the five rats in the treatment group was administered the amino acid decarboxylase inhibitor m-hydroxybenzylhydrazine (also known as NSD-1015). See Euvard et al., Eur. J. Pharmacol. 1980, 63, 65 and Hamon et al., Arch. Pharmacol. 1976, 294, 99. The NSD-1015 was administered at a dose of 100 mg/kg (intraperitoneal) 30 minutes before decapitation and 30 minutes after the dose of the test compound of Example 1 was given.

T1 sequence (P14842 whole entry): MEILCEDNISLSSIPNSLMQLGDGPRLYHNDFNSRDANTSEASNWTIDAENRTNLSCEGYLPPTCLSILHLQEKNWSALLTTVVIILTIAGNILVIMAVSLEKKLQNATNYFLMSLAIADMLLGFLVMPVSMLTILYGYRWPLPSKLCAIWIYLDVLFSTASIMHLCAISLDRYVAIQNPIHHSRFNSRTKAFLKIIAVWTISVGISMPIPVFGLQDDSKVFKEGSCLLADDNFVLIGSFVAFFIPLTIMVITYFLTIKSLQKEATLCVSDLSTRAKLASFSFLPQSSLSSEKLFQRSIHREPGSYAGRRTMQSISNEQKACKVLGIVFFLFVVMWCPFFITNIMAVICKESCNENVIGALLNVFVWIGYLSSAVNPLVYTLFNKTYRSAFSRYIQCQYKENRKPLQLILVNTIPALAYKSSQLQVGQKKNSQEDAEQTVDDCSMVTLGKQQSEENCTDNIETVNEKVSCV

Compound	IC50 (5-HT1 receptor) [nM]	Selectivity Ratio (5-HT1 receptor)	IC50 (5-HT2 receptor) [nM]	minimal effective dose [1] [mg/kg]	minimal effective dose (serum corticosterone) [mg/kg]	5-Hydroxytryptophan Concentration in Hypothalamus ([2]; 0.01 mg/kg subcutaneous) [nanomoles per gram]	5-Hydroxytryptophan Concentration in Hypothalamus ([2]; 0.03 mg/kg subcutaneous) [nanomoles per gram]	5-Hydroxytryptophan Concentration in Hypothalamus ([2]; 0.1 mg/kg subcutaneous) [nanomoles per gram]	5-Hydroxytryptophan Concentration in Hypothalamus ([2]; 0.3 mg/kg subcutaneous) [nanomoles per gram]	5-hydroxytryptophan accumulation in the hypothalamus (in words) ([2]; NSD-1015 treated rats, 0.01-0.3 mg/kg subcutaneous)	dose of maximal reduction of serotonin turnover ([2]; NSD-1015 treated rats, subcutaneous) [mg/kg]
NCCc1c[nH]c2ccc(O)cc12 [serotonin, 5-hydroxytryptamine, reference compound]	4										
CN1C[C@H](CSc2ccccn2)C=C2c3cccc4c3[C@@H](CN4)C[C@H]21 [Example 8, (3β,5β,8β)-9,10-Didehydro-2,3-dihydro-6-methyl-8-(2-pyridylthiomethyl)ergoline]	3	28	110								
C=C1C=C2c3cccc4c3[C@@H](CN4)C[C@H]2N(C)C1 [Example 4, (3β)-2,3-Dihydrolysergene]	80	48	3820								
CN1C[C@H](CO)C=C2c3cccc4c3[C@@H](CN4)C[C@H]21 [Example 3, (3β)-2,3-Dihydrolysergol]	26		2650	1	0.1						
CN1C[C@H](CC#N)C=C2c3cccc4c3[C@@H](CN4)C[C@H]21 [Example 6, (3β,5β,8β)-9,10-Didehydro-2,3-dihydro-6-methylergoline-8-acetonitrile]	20		2120	0.1	0.1						
CCCN1C[C@H](C)C=C2c3cccc4c3[C@@H](CN4)C[C@H]21 [Example 10, (3β,5β,8β)-9,10-Didehydro-2,3-dihydro-8-methyl-6-propylergoline]	240		> 1000								
COC(=O)[C@@H]1C=C2c3cccc4c3[C@@H](CN4)C[C@H]2N(C)C1 [Example 9, (3β)-2,3-Dihydro-methyllysergate]	40	40	1620								
C[C@H]1C=C2c3cccc4c3[C@@H](CN4)C[C@H]2N(C)C1 [Example 2, (3β)-2,3-Dihydroisolysergine]	20	at least 100	> 1000	0.001	0.003						
C[C@@H]1C=C2c3cccc4c3[C@@H](CN4)C[C@H]2N(C)C1 [Example 1, (3β)-2,3-Dihydrolysergine]	17		1660	0.03	0.1	1.64 ± 0.07	1.19 ± 0.05	0.73 ± 0.02	0.71 ± 0.02	dose related decrease in 5-hydroxytryptophan accumulation; also recorded: Significant effects were detected at all of the doses used	0.1
CN1C[C@H](CSc2ccccc2)C=C2c3cccc4c3[C@@H](CN4)C[C@H]21 [Example 7, (3β,5β,8β)-9,10-Didehydro-2,3-dihydro-6-methyl-8-(phenylthiomethyl) ergoline]	8	26	210								
CSC[C@@H]1C=C2c3cccc4c3[C@@H](CN4)C[C@H]2N(C)C1 [Example 5, (3β,5β,8β)-9,10-Didehydro-2,3-dihydro-6-methyl-8-(methylthiomethyl) ergoline]	20	66	1330	0.1	1						
